The values below come from ChEMBL document CHEMBL3243925, “Disteroidyl ethers. 1. Synthesis and oral long-lasting uterotrophic activity of 1,3,5(10)-estratrien-17-yl enol ethers of 3-keto steroids” (1977).

Structures are written as SMILES. Calls of active or inactive are those of the source. No cut-off for these calls is given here.

The subject of assay [1] is Rattus norvegicus. The experiment in a line: Uterotrophic activity in spayed Wistar rat assessed as autopsies by measuring uterus weight at 0.1 umol, po after 1 week (reference value: 15.1 +/- 0.51 mg). Format: functional.
Assay [2] deals with Rattus norvegicus. In words: Uterotrophic activity in spayed Wistar rat assessed as autopsies by measuring uterus weight at 0.1 umol, po after 2 weeks (reference value: 15.9 +/- 0.50 mg). Type of assay: functional.

For the compound `C#C[C@]1(OC(=O)CCCCCC)CC[C@H]2[C@@H]3CC=C4C=C(O[C@H]5CC[C@H]6[C@@H]7CCc8cc(OC(C)=O)ccc8[C@H]7CC[C@]56C)CC[C@@H]4[C@H]3CC[C@@]21C`, the Activity came to 31.7 mg in the assay on Rattus norvegicus [1] and 28.7 mg with Rattus norvegicus [2].
`CCC(=O)O[C@H]1CC[C@H]2[C@@H]3CC=C4C=C(O[C@H]5CC[C@H]6[C@@H]7CCc8cc(OC(=O)c9ccccc9)ccc8[C@H]7CC[C@]56C)CC[C@]4(C)[C@H]3CC[C@]12C`: the Activity is 49.4 mg in the assay on Rattus norvegicus [1] and 31 mg in the assay on Rattus norvegicus [2].
For the compound `C#C[C@]1(OC(=O)CCCCCC)CC[C@H]2[C@@H]3CC=C4C=C(O[C@H]5CC[C@H]6[C@@H]7CCc8cc(OC9CCCC9)ccc8[C@H]7CC[C@]56C)CC[C@@H]4[C@H]3CC[C@@]21C`, the Activity with Rattus norvegicus [1] was found to be 19.8 mg; in the assay with Rattus norvegicus [2], 15.2 mg.
As for `C#C[C@]1(OC(=O)CCCCCC)CC[C@H]2[C@@H]3CC=C4C=C(O[C@H]5CC[C@H]6[C@@H]7CCc8cc(OC(=O)C(C)C)ccc8[C@H]7CC[C@]56C)CC[C@@H]4[C@H]3CC[C@@]21C`, the Activity is 37.2 mg with Rattus norvegicus [1] and 30.4 mg in the assay on Rattus norvegicus [2].
On to `C#C[C@]1(OC(C)=O)CC[C@H]2[C@@H]3CC=C4C=C(O[C@H]5CC[C@H]6[C@@H]7CCc8cc(OC(C)OCC)ccc8[C@H]7CC[C@]56C)CC[C@@H]4[C@H]3CC[C@@]21C` (stereo not given in full), for which the Activity stood at 30.3 mg with Rattus norvegicus [1] and 19.3 mg in the assay on Rattus norvegicus [2].
For `C#C[C@]1(OC(C)=O)CC[C@H]2[C@@H]3CC=C4C=C(O[C@H]5CC[C@H]6[C@@H]7CCc8cc(OC9CCCC9)ccc8[C@H]7CC[C@]56C)CC[C@@H]4[C@H]3CC[C@@]21C`, in the assay on Rattus norvegicus [1], the Activity was 17.9 mg.
For the compound `C[C@]12CC[C@@H]3c4ccc(OC(=O)c5ccccc5)cc4CC[C@H]3[C@@H]1CC[C@@H]2OC1=CC2=CC[C@@H]3[C@H](CC[C@]4(C)C(=O)CC[C@@H]34)[C@@]2(C)CC1`, the values for the Activity with Rattus norvegicus [1] and in the assay on Rattus norvegicus [2] were 53 mg and 31.6 mg, respectively.
In the case of `C#C[C@@]1(OC(C)=O)CC[C@H]2[C@@H]3CC=C4C=C(O[C@H]5CC[C@H]6[C@@H]7CCc8cc(OC(=O)c9ccccc9)ccc8[C@H]7CC[C@]56C)CC[C@@H]4[C@H]3CC[C@@]21C`, the outcome in the assay with Rattus norvegicus [1] and in the assay with Rattus norvegicus [2] was inactive.
As for `C#C[C@]1(OC(C)=O)CC[C@H]2[C@@H]3CC=C4C=C(O[C@H]5CC[C@H]6[C@@H]7CCc8cc(OC(=O)CCCCCC)ccc8[C@H]7CC[C@]56C)CC[C@@H]4[C@H]3CC[C@@]21C`, the Activity with Rattus norvegicus [1] was 29.5 mg; with Rattus norvegicus [2], 18.9 mg.
Turning to `CC(=O)[C@H]1CC[C@H]2[C@@H]3CC=C4C=C(O[C@H]5CC[C@H]6[C@@H]7CCc8cc(OC(=O)c9ccccc9)ccc8[C@H]7CC[C@]56C)CC[C@@H]4[C@H]3CC[C@]12C`, the Activity amounted to 29.1 mg in the assay with Rattus norvegicus [1] and 28.5 mg in the assay on Rattus norvegicus [2].
In the case of `C#C[C@]1(O)CC[C@H]2[C@@H]3CCc4cc(OC5CCCC5)ccc4[C@H]3CC[C@@]21C` [QUINESTROL], the Activity in the assay with Rattus norvegicus [1] was found to be 39 mg; with Rattus norvegicus [2], 29 mg.
On the same counts, the results for `C#C[C@]1(O)CC[C@H]2[C@@H]3CC=C4C=C(O[C@H]5CC[C@H]6[C@@H]7CCc8cc(O)ccc8[C@H]7CC[C@]56C)CC[C@@H]4[C@H]3CC[C@@]21C` are 40.5 mg and 23.3 mg.
On the same counts, the results for `CCC(=O)O[C@H]1CC[C@H]2[C@@H]3CC[C@@H]4CC(O[C@H]5CC[C@H]6[C@@H]7CCc8cc(OC(=O)c9ccccc9)ccc8[C@H]7CC[C@]56C)CC[C@]4(C)[C@H]3CC[C@]12C` (stereo not given in full) are “inactive” and “inactive”.
With `C#C[C@]1(OC(C)=O)CC[C@H]2[C@@H]3CC=C4C=C(O[C@H]5CC[C@H]6[C@@H]7CCc8ccccc8[C@H]7CC[C@]56C)CC[C@@H]4[C@H]3CC[C@@]21C`, the result with Rattus norvegicus [1] and with Rattus norvegicus [2] was inactive.
Regarding `C[C@]12CC[C@@H]3c4ccc(OC5CCCC5)cc4CC[C@H]3[C@@H]1CC[C@@H]2OC1=CC2=CC[C@@H]3[C@H](CC[C@]4(C)C(=O)CC[C@@H]34)[C@H]2CC1`, the Activity in the assay with Rattus norvegicus [1] was determined as 29.1 mg; in the assay with Rattus norvegicus [2], 26.2 mg.
Consider `C#C[C@@]1(O)CC[C@H]2[C@@H]3CC=C4C=C(O[C@H]5CC[C@H]6[C@@H]7CCc8cc(O)ccc8[C@H]7CC[C@]56C)CC[C@@H]4[C@H]3CC[C@@]21C`, for which the outcome with Rattus norvegicus [1] and in the assay on Rattus norvegicus [2] was inactive.
For `CC(=O)[C@@H]1CC[C@H]2[C@@H]3CC=C4C=C(O[C@H]5CC[C@H]6[C@@H]7CCc8cc(OC(=O)c9ccccc9)ccc8[C@H]7CC[C@]56C)CC[C@@H]4[C@H]3CC[C@]12C`, the outcome in the assay with Rattus norvegicus [1] and in the assay with Rattus norvegicus [2] was inactive.
Turning to `C[C@]12CC[C@@H]3c4ccc(OC5CCCC5)cc4CC[C@H]3[C@@H]1CC[C@@H]2OC1=CC2=CC[C@@H]3[C@H](CC[C@]4(C)[C@@H](O)CC[C@@H]34)[C@H]2CC1`, the results for the Activity with Rattus norvegicus [1] and in the assay with Rattus norvegicus [2] were 35.8 mg and 27.1 mg, respectively.
Take `C#C[C@]1(O)CC[C@H]2[C@@H]3CC=C4C=C(O[C@H]5CC[C@H]6[C@@H]7CCc8cc(OC(C)=O)ccc8[C@H]7CC[C@]56C)CC[C@@H]4[C@H]3CC[C@@]21C`: the Activity with Rattus norvegicus [1] is reported as 39.2 mg; in the assay with Rattus norvegicus [2] it was 32.7 mg.
Turning to `C[C@]12CC[C@H]3[C@@H](CC=C4C=C(O[C@H]5CC[C@H]6[C@@H]7CCc8cc(OC9CCCC9)ccc8[C@H]7CC[C@]56C)CC[C@@H]43)[C@@H]1CC[C@@H]2OC(=O)CCC(=O)O`, the figures for the Activity in the assay on Rattus norvegicus [1] and in the assay on Rattus norvegicus [2] were 28.9 mg and 31.8 mg, respectively.
In the case of `CC(=O)O[C@H]1CC[C@H]2[C@@H]3CC[C@H]4C=C(O[C@H]5CC[C@H]6[C@@H]7CCc8cc(OC(=O)c9ccccc9)ccc8[C@H]7CC[C@]56C)C=C[C@]4(C)[C@H]3CC[C@]12C`, the Activity with Rattus norvegicus [1] amounted to 21.3 mg; with Rattus norvegicus [2] it was 20.1 mg.
For `C[C@]12CC[C@@H]3c4ccc(O)cc4CC[C@H]3[C@@H]1CC[C@@H]2OC1=CC2=CC[C@@H]3[C@H](CC[C@]4(C)C(=O)CC[C@@H]34)[C@H]2CC1`, in that order: 71.7 mg and 43.6 mg.
Take `C[C@]12CC[C@@H]3c4ccc(O)cc4CC[C@H]3[C@@H]1CC[C@@H]2OC1=CC2=CC[C@H]3[C@@H]4CC[C@H](O)[C@@]4(C)CC[C@@H]3[C@@]2(C)CC1`: the figures for the Activity with Rattus norvegicus [1] and in the assay on Rattus norvegicus [2] were 50.2 mg and 36.8 mg, respectively.
Take `CC(=O)[C@H]1CC[C@H]2[C@@H]3CC=C4C=C(O[C@H]5CC[C@H]6[C@@H]7CCc8cc(OC(=O)c9ccccc9)ccc8[C@H]7CC[C@]56C)CC[C@]4(C)[C@H]3CC[C@]12C`: the values for the Activity with Rattus norvegicus [1] and in the assay with Rattus norvegicus [2] were 26.3 mg and 20.6 mg, respectively.
As to `C#C[C@]1(OC(=O)CCCCCC)CC[C@H]2[C@@H]3CC=C4C=C(O[C@H]5CC[C@H]6[C@@H]7CCc8cc(O)ccc8[C@H]7CC[C@]56C)CC[C@@H]4[C@H]3CC[C@@]21C`, the Activity was 33.8 mg in the assay with Rattus norvegicus [1] and 22.1 mg in the assay on Rattus norvegicus [2].
For `C[C@]12CCC(O[C@H]3CC[C@H]4[C@@H]5CCc6cc(O)ccc6[C@H]5CC[C@]34C)C[C@H]1CC[C@@H]1[C@@H]2CC[C@]2(C)[C@@H](O)CC[C@@H]12` (stereo not given in full), in that order: “inactive” and “inactive”.
For `C#C[C@]1(OC(C)=O)CC[C@H]2[C@@H]3CC=C4C=C(O[C@H]5CC[C@H]6[C@@H]7CCc8cc(OC(=O)c9ccccc9)ccc8[C@H]7CC[C@]56C)CC[C@@H]4[C@H]3CC[C@@]21C`, the results for the Activity with Rattus norvegicus [1] and with Rattus norvegicus [2] were 25.6 mg and 21.4 mg, respectively.
Regarding `C[C@]12CC[C@@H]3c4ccc(OC(=O)c5ccccc5)cc4CC[C@H]3[C@@H]1CC[C@@H]2OC1=CC2=CC[C@@H]3[C@H](CC[C@]4(C)C(=O)CC[C@@H]34)[C@H]2CC1`, the Activity with Rattus norvegicus [1] came out at 59.8 mg; in the assay with Rattus norvegicus [2] it was 43.7 mg.
`CC(=O)O[C@H]1CC[C@H]2[C@@H]3CC=C4C=C(O[C@H]5CC[C@H]6[C@@H]7CCc8cc(OC(=O)c9ccccc9)ccc8[C@H]7CC[C@]56C)CC[C@@H]4[C@H]3CC[C@]12C`: the Activity with Rattus norvegicus [1] came out at 48 mg; with Rattus norvegicus [2], 31.6 mg.
With `C[C@]12CC[C@H]3[C@@H](CC=C4C=C(O[C@H]5CC[C@H]6[C@@H]7CCc8cc(OC(=O)c9ccccc9)ccc8[C@H]7CC[C@]56C)CC[C@@H]43)[C@@H]1CC[C@@H]2OC(=O)c1ccccc1`, the Activity is listed as 31.3 mg in the assay with Rattus norvegicus [1] and 18.1 mg with Rattus norvegicus [2].
Consider `CCC(=O)O[C@H]1CC[C@H]2[C@@H]3CC[C@@H]4C=C(O[C@H]5CC[C@H]6[C@@H]7CCc8cc(OC(=O)c9ccccc9)ccc8[C@H]7CC[C@]56C)CC[C@]4(C)[C@H]3CC[C@]12C`, for which the results for the Activity in the assay on Rattus norvegicus [1] and in the assay with Rattus norvegicus [2] were 21.2 mg and 19.9 mg, respectively.
Take `CCC(=O)O[C@H]1CC[C@H]2[C@@H]3CC[C@H]4CC(O[C@H]5CC[C@H]6[C@@H]7CCc8cc(OC(=O)c9ccccc9)ccc8[C@H]7CC[C@]56C)=CC[C@]4(C)[C@H]3CC[C@]12C`: the Activity was determined as 23.3 mg in the assay with Rattus norvegicus [1] and 21.3 mg in the assay on Rattus norvegicus [2].
On the same counts, the results for `CCC(=O)O[C@H]1CC[C@H]2[C@@H]3CC[C@H]4CC(O[C@H]5CC[C@H]6[C@@H]7CCc8cc(OC(=O)c9ccccc9)ccc8[C@H]7CC[C@]56C)CC[C@]4(C)[C@H]3CC[C@]12C` (stereo not given in full) are “inactive” and “inactive”.
